Measured values reported in patent US9314444B2, “Composition and method for treatment of NASH” (BioKier Inc., priority 2009, dated 2016).

Key:
L-cells in the colon = details: dosed orally and unformulated; cited from earlier work
GLP-1 and PYY = experiment: Direct colonic delivery, secretion of gut hormones from the colon; type: in vivo; details: upper gut bypassed
[1] = system: cell lines derived from L-cells; details: cited from earlier work
rat liver = details: butyrate formed from carbohydrates via fermentation in the rat colon; cited from earlier work
GLP-1 = experiment: Colon delivered L-glutamine, GLP-1 secretion in human diabetic subjects; type: in vivo

CCC(=O)O [propionic acid]
minimum effective amount (L-cells in the colon): 30 grams
secretion of GLP-1 from the colon (GLP-1 and PYY): increase
secretion of PYY from the colon (GLP-1 and PYY): increase
secretion of gut hormones [1]: induce secretion

CCCC(=O)O [butyric acid]
minimum effective amount (L-cells in the colon): 30 grams
fat in the rat liver (rat liver): reduces
secretion of GLP-1 from the colon (GLP-1 and PYY): increase
secretion of PYY from the colon (GLP-1 and PYY): increase
secretion of gut hormones [1]: induce secretion

NC(=O)CC[C@H](N)C(=O)O [L-glutamine]
minimum effective amount (L-cells in the colon): 30 grams
toxic dose (L-cells in the colon): ≥ 30 grams
secretion of GLP-1 from the colon (GLP-1 and PYY): increase
secretion of PYY from the colon (GLP-1 and PYY): increase
secretion of GLP-1 (GLP-1): increased
secretion of gut hormones [1]: induce secretion
